The source of these data is US7148193B2, “Compounds that bind to growth hormone receptor” (Antyra, Inc., priority 1997, dated 2006).

Where a SMILES comes first, the peptide text is derived from it. Bridges are numbered along the chain shown (N, C = ends).

Assay [1] has as its target T1, rGHBP (Rattus norvegicus, UniProt P16310).
T1 construct: 1–48 of GHBP; The 3′ oligo used for this reaction encoded the mutation L43R (CTG→AGA); The second PCR reaction amplified the DNA encoding amino acids 38–260; 6xHis; made in house
T1 sequence (P16310 19-278 isoform P16310-2): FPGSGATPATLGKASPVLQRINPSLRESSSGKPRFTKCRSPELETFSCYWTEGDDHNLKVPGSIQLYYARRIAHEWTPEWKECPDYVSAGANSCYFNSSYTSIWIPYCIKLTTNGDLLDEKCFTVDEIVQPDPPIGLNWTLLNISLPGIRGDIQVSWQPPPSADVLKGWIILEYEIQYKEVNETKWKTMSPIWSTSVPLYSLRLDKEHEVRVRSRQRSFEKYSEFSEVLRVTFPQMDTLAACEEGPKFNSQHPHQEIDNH
Put plainly: BIAcore affinity measurements of bPeptide binding to rGHBP. The note with it: BIAcore appKD and phage competition. The method, then: GHBP was immobilized onto one flow-cell of a CM-5 sensor chip (Biosensor) using amine coupling chemistry and the manufacturer's recommended protocol. An unrelated IgG was immobilized in the same manner to another flow cell of the same chip as a control surface. Increasing concentrations of synthetic peptide were injected over both surfaces, and the binding responses were allowed to come to equilibrium. After subtraction of background binding from the control surface, the results were used to derive an equilibrium dissociation constant using Scatchard analysis.
The rat GHBP (100 μg/ml) was immobilized onto a CM-5 sensor chip using amino coupling chemistry and the manufacturer's recommended protocol. The final surface density was 4000 RU. A monoclonal antibody was immobilized onto another flow cell as a control surface. Peptides (50 μg/ml) were injected at a flow rate of 5 μl/min. Background binding to the control surface was subtracted prior to further analysis.

Assay [2] concerns the target T1, rGHBP. The experiment in a line: Time-resolved fluorometric detection (TRFD) of specific bLigand binding to rGHBP and its competition. The note with it: TRFD. The method, then: For this invention, saEu forms a ternary complex with bP and rGHBP (i.e., the rGHBP:bP:saEu complex). As described herein, the TRFD assay is performed using biotinylated GH (bGH) as bLigand. Biotinylated H5-mutant peptides bP#447 (SEQ ID NO:11) and bP#418 (SEQ ID NO:12) are also used as bLigand (see below). The TRFD assay described herein faithfully reports the competition of ligand binding to the active site of rGHR. To perform the TRFD assays, soluble rGHBP is attached to the surface of microtiter wells, then incubated with bP. Unbound bP is than washed away and (sa)Eu is added to complex with receptor bound bP. The rGHBP:bP bound (sa)Eu is then converted into its highly fluorescent state and detected by TRFD.
Wells were coated with rGHBP(100 ng/well) overnight as described. ED50 and IC50 were calculated from analysis of specific bLigand binding to rGHBP. Competitors were added 1 hr prior to addition of bLigand as described.
rGHBP (50–200 μg/ml in 50 mM NaHCO3) was coated onto low-fluorescence MaxiSorp (Nunc) plates (100 μl/well) overnight at 4° C. The plates were blocked with PBS containing 2% non-fat milk and 0.05% BSA for 2 hr at room temperature, followed by three PBS washes. For competitions, serial dilutions of unlabelled growth hormone (0.1 nM-100 nM) or MAb 2C3 (0.67–67 nM) were added to the plates (100 μl/well) and incubated at room temperature for 1–2 hr. Biotinylated peptide or biotinylated GH (10× concentrations) were incubated in blocking buffer for 30 min to decrease non-specific binding. Ten microliters of the 10× concentrated material was added to the plates and incubated at room temperature for 1 hr to overnight.
The plates were then washed five times with Tris-buffered saline (pH 7.5) containing 0.1% Tween-20 (TTBS). To each well, 100 μl of europium-labeled streptavidin in DELFIA assay buffer (100 mM Tris-HCl, pH 7.8; 150 mM NaCl; 0.5% BSA; 0.05% bovine Ig; 0.05% NaN3; 0.01% Tween-20) was added and incubated for 1.5 hr at room temperature. The plates were then washed five times with TTBS and tapped dry. Subsequently, 100 μl of DELFIA enhancement solution (100 mM acetone-potassium hydrogen phthalate, pH 3.2; 15 mM 2-naphtyltrifluoroacetate; […] tri(n-octyl)-phosphine oxide; 0.1% Triton X-100) was added to each well, and the plates were shaken for 10 min at room temperature. Fluorescence of each sample well was measured at 615 nm using a DELFIA 1234 fluorometer (EG&G Wallac). General procedure and references as described by Wallac are available in “Lanthanide labeling for time-resolved fluorometry”: Wallac publication 1244–1126-03.

`CC(C)C[C@@H]1NC(=O)[C@H](Cc2c[nH]c3ccccc23)NC(=O)CNC(=O)[C@@H]2CCCN2C(=O)[C@H](Cc2c[nH]c3ccccc23)NC(=O)[C@H]([C@@H](C)O)NC(=O)[C@H](C(C)C)NC(=O)[C@H](CCC(N)=O)NC(=O)[C@H](Cc2c[nH]c3ccccc23)NC(=O)[C@H](CO)NC(=O)[C@H](CCC(N)=O)NC(=O)[C@@H](NC(=O)[C@H](CC(C)C)NC(=O)[C@H](CC(=O)O)NC(=O)[C@H](CCCCN)NC(=O)[C@H](Cc2ccc(O)cc2)NC(=O)[C@@H](N)CC(=O)O)CSSC[C@@H](C(=O)N[C@@H](C)C(=O)N[C@@H](CCCCN)C(=O)N[C@@H](CCCCN)C(=O)O)NC(=O)[C@H](Cc2c[nH]c3ccccc23)NC(=O)CNC(=O)[C@H](C)NC1=O` [#418] (H-DYKDLCQSWQVTWPGWLAGWCAKK-OH; disulfide 6-21; N-terminus and C-terminus assumed): the “affinity for rGHBP, ranking” value in assay [1] is recorded as “highest affinity”. Further, the “binding better than H5WT or bP#445” value in assay [2] worked out at 10 times.

As to `CC(C)C[C@@H]1NC(=O)[C@H](CCCNC(=N)N)NC(=O)[C@H](CCC(N)=O)NC(=O)[C@@H](NC(=O)[C@H](CC(C)C)NC(=O)[C@H](CC(=O)O)NC(=O)[C@H](CCCCN)NC(=O)[C@H](Cc2ccc(O)cc2)NC(=O)[C@@H](N)CC(=O)O)CSSC[C@@H](C(=O)N[C@@H](C)C(=O)N[C@@H](CCCCN)C(=O)N[C@@H](CCCCN)C(=O)O)NC(=O)[C@H](Cc2c[nH]c3ccccc23)NC(=O)CNC(=O)[C@H](CO)NC(=O)[C@H](CC(C)C)NC(=O)[C@H](Cc2c[nH]c3ccccc23)NC(=O)CNC(=O)[C@@H]2CCCN2C(=O)[C@H](Cc2c[nH]c3ccccc23)NC(=O)CNC(=O)[C@H](C(C)C)NC(=O)CNC1=O` [#447], the “affinity for rGHBP, ranking” value in assay [1] was “highest affinity”. In addition, the “binding better than H5WT or bP#445” value in assay [2] turned out to be 10 times.
